From publication PMC5407626 (PLoS ONE, 2017)

How the values were obtained:
RBP4 = RBP4 (Homo sapiens, UniProt P02753); assay: Binding to RBP4; details: data not shown
RARβ [1] = biological target: T1, RARβ (Homo sapiens, UniProt P10826); assay: GeneBLAzer RAR-beta DA assay, agonist mode; type: cell-based
T1 sequence (P10826 183-417 limits assumed): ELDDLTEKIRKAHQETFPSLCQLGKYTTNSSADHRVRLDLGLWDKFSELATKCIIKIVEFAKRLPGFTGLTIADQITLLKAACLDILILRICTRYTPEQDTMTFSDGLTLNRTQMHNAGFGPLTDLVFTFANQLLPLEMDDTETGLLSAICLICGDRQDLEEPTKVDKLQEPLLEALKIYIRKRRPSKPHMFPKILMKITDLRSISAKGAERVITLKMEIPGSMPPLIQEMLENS
Protocol: (§1) The potency of agonists and antagonists was measured by GeneBLAzer RAR-beta DA Assay Kit (ThermoFisher Scientific) according to the manufacturer’s recommendations.
The phenylretinamides may have the ability to modulate the expression of proteins and induce cell apoptosis via RAR-dependent and -independent pathways. […] Human retina-derived cells in culture show differences in expression of RAR receptors. […] Clonetics HRPE primary human cells specifically express only RARβ [50].

recombinant mouse BCO1 = biological target: T2, recombinant mouse BCO1 (Mus musculus, UniProt Q9JJS6); assay: In vitro inhibition of recombinant mouse BCO1 activity; type: biochemical; details: inhibitor 0–200 μM
T2 construct: His-tag; made in house; host or cells: E. coli
T2 sequence (Q9JJS6 1-566): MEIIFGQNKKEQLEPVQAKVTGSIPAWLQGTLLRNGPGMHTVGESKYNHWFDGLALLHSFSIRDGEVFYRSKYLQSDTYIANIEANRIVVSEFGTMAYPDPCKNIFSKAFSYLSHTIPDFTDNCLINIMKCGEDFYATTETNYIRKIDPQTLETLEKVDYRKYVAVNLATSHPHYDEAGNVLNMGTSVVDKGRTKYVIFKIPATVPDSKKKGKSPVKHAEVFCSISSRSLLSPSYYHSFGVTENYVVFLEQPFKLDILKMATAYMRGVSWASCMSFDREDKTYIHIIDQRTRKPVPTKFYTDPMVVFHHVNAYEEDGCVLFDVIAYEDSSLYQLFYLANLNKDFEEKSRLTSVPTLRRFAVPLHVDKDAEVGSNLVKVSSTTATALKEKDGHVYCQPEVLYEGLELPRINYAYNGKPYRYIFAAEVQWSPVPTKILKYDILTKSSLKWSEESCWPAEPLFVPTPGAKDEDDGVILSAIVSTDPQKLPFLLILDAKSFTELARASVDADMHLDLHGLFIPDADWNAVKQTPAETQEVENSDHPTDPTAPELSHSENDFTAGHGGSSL
Text: Recombinant His-tag mouse BCO1 was produced in E.coli and purified using Talon CellThru (Clontech Labs, Inc., Mountain View, CA) resin as described previously. β-carotene was delivered in 1% octylthioglucoside. […] All other inhibitors were delivered in ethanol. […] The final concentration of ethanol in all samples was 1%. […] Data plotted as means±standard deviation; n = 3; […] Analysis was done in C57BL/6 wt (3 animals) and Bco1^-/- mice (13 animals).

RARβ [2] = biological target: T1, RARβ; assay: GeneBLAzer RAR-beta DA assay, antagonist mode (competition with at-RA); type: cell-based; details: at-RA 0.5–1.5 nM; tested 10^−5 to 10^−9 M
Protocol: as §1
The phenylretinamides may have the ability to modulate the expression of proteins and induce cell apoptosis via RAR-dependent and -independent pathways. […] Additionally, apoptosis of neuroblastoma cell lines was blocked by two retinoic acid receptor (RAR)-β/γ-specific antagonists, but not by a RARα-specific antagonist. […] However, in this case the specific RARα-specific antagonist AGN194301 could block fenretinde-induced apoptosis. […] Human retina-derived cells in culture show differences in expression of RAR receptors. […] Clonetics HRPE primary human cells specifically express only RARβ [50].
Fluorescence was measured at excitation (ex) 409 nm/emission (em) 460 and at ex 409nm/em 530 nm and the ratio was determined and plotted against a range of concentrations (10^−5 to 10^−9 M) of the tested compounds.

RBP4 binding compared with MPR (RBP4): less potent inhibitor | EC50 (RARβ [1]): 4.4 µM | effect on BCO1 activity (recombinant mouse BCO1): does not inhibit BCO1 activity | competition with all-trans-retinoic acid (RARβ [2]): cannot compete
Compound: CCOc1ccc(NC(=O)/C=C(C)/C=C/C=C(C)/C=C/C2=C(C)CCCC2(C)C)cc1 [EPR, N-[4-ethoxyphenyl]retinamide]
